# The METLIN SMRT retention time set (Domingo-Almenara et al. 2019)
# Experiment: gradient 5% acetonitrile 3 min, to 50% in 2 min, to 85% in 15 min, held 3 min, 100 µL/min
# Conditions: column: Zorbax Extend-C18 2.1 x 50 mm; eluents: water / acetonitrile, 0.1% formic acid
# Summary of the method: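 The system's dead and dwell volumes were 40 μL and 900 μL, with a Zorbax Extend-C18 column (2.1 × 50 mm, 1.8 μm) run at 100 μL/min in water and acetonitrile containing 0.1% formic acid each. Pure standards were analyzed in mixtures of ~100 molecules by HPLC–quadrupole time-of-flight mass spectrometry in positive and negative ionization mode. Retention time was assigned from computationally picked, manually inspected adduct peaks.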
row,SMILES,RP-LC retention time
1,Cc1ccc2c(c1)C(O)(CC(=O)c1ccc(NC(=O)C3CCCCC3)cc1)C(=O)N2 (stereo not drawn),766 s
2,Cc1cc(C)cc(S(=O)(=O)N2CCC3(CC2)NCCN=C3NCc2cccc(F)c2)c1,772 s
3,Cc1ccc(C(=O)N2C[C@@H](C)[C@H](c3nc(C)no3)C2)cn1,593 s
4,Cc1noc(C)c1CN1CCN(C(=O)NCc2ccc(F)cc2)CC1,598 s
5,O=C(NCC1CC1)c1c(OCC2CC2)cc(=O)n2c1CCCCC2,688 s
6,C=C1C(=O)OC2CC1C(OC(C)=O)C/C(C)=C/CC/C(C)=C\CCC2(C)O (stereo not drawn),917 s
7,Cc1ccc(-c2noc(Cn3cnc4c(cnn4-c4ccc(C(C)C)cc4)c3=O)n2)cc1C,1330 s
8,Cc1nn2c(S(=O)(=O)N3CCOCC3)c(C)nc2s1,656 s
9,Cc1cc2[nH]c(C(=O)Nc3ccc(Cl)cc3C)c(CN3CCOCC3)c2s1,738 s
10,CN1C2CCC1CC(OC(=O)c1cc(Cl)cc(Cl)c1)C2 (stereo not drawn),669 s
11,CC1CCN(c2ncc3c(n2)CCN(Cc2ccc(OC(C)C)cc2)C3)CC1,807 s
12,CC(C)C(=O)NCc1csc(C2CCCN(C(=O)CC(C)(C)C)C2)n1 (stereo not drawn),734 s
13,CCCNc1nc(-c2ccc(C3CCCCC3)cc2)cs1,1170 s
14,COc1cc(-c2noc(-c3nc(-c4ccccc4)no3)n2)cc(OC)c1OC,1070 s
15,CCN(CC)S(=O)(=O)c1ccc2c(c1)CC(C(=O)N1CCCCC1)N2C(C)=O (stereo not drawn),804 s
16,CCCn1c(=O)sc2cc(S(=O)(=O)N3CCC(C(=O)N4CCN(CC)CC4)CC3)ccc21,640 s
17,O=C(NCC1CCN(C(=O)c2ccccc2F)CC1)C(=O)Nc1ccon1,636 s
18,CCn1ccc2sc(C)c(C(=O)NCc3ccc(OC)cc3OC)c2c1=O,814 s
19,COc1ccc(N2CCN(C(=O)c3c(C)sc4ccn(C)c(=O)c34)CC2)cc1,661 s
20,COc1ccc(Cl)cc1S(=O)(=O)N1CCC(C(=O)NCCc2csc(C)n2)CC1,732 s

row,SMILES,RP-LC retention time
1,Cc1ccc(CS(=O)(=O)N2CCC(C3CCNC3)CC2)cc1 (stereo not drawn),588 s
2,O=C(Nc1ccc(S(=O)(=O)N2CCOCC2)cc1)c1ccc(Cl)s1,767 s
3,CCC(C)NC(=O)C1CCN(S(=O)(=O)c2c(C)nn(-c3ccc(C)cc3)c2C)CC1 (stereo not drawn),683 s
4,CC(C)NC(=O)c1ccccc1OCC1CCCN(C2CCCC2)C1 (stereo not drawn),635 s
5,Cc1ccc(-c2nn3c(N4CCN(c5ccccn5)CC4)cc(C)nc3c2C)cc1,613 s
6,COc1ccc(OC)c(S(=O)(=O)NCc2ccc3c(c2)CCN3C(C)=O)c1,719 s
7,CSc1ccc(CNC(=O)C2CCN(c3cncnc3N3CCOCC3)CC2)cc1,637 s
8,O=C(Nc1ccncc1)c1cc([N+](=O)[O-])ccc1Cl,638 s
9,COc1cccc(-c2noc(CN3C(=O)COc4cc(C(C)(C)C)ccc43)n2)c1,1200 s
10,C[C@@H]1C(=O)O[C@H]2C[C@@]34[C@H]5C[C@@H](C(C)(C)C)[C@]36[C@@H](OC(=O)[C@@H]6O)O[C@@]4(C(=O)O5)[C@]21O,715 s
11,O=C(NC1CCCCCC1)C1CCN(c2cc(N3CCSCC3)ncn2)CC1,710 s
12,CC1CN(C(=O)CSc2cn(CC(=O)N3CCCCCC3)c3ccccc23)CC(C)O1 (stereo not drawn),897 s
13,COC[C@@H]1CN(Cc2c(C)noc2C)C[C@H]1c1ccccn1,580 s
14,CCc1cc(-c2csc(S(=O)(=O)N3CCN(c4cccc(Cl)c4)CC3)c2)on1,1200 s
15,COc1ccc2c(c1)c(CN1CCCCCCN(C)C(=O)[C@@H]3CCC[C@@H]31)cn2C,721 s
16,O=C(NC1CC1)C1CCCN(S(=O)(=O)c2c[nH]c(C(=O)N3CCCCCC3)c2)C1 (stereo not drawn),702 s
17,O=C(O)Cc1csc(NC(=O)C2CCC(=O)N2)n1 (stereo not drawn),528 s
18,O=C(CSc1ccc(-c2ccc3c(c2)OCO3)nn1)Nc1ccc2c(c1)OCCO2,782 s
19,CCC(C)(C)C(=O)NC1CCN(c2cnn(CC3CC3)c(=O)c2)CC1,664 s

# Other lines, results leading:
row,RP-LC retention time,SMILES
1,747 s,Cc1c(Cl)cccc1NC(=O)N1CCCC(Cn2cnc3cccnc32)C1 (stereo not drawn)
2,865 s,COc1ccc(CCN2CC(=O)N(c3cc(C)cc(C)c3)[C@@H]3CS(=O)(=O)C[C@@H]32)cc1
3,887 s,O=C(O)c1ccc2c(c1Sc1ccccc1)C(=O)c1ccccc1C2=O
4,719 s,CN(C)C(=O)c1cccc2c1CCN2C(=O)c1ccc(F)cc1
5,1060 s,CCn1nccc1-c1cccc(-c2noc(-c3cc4ccccc4oc3=O)n2)c1
6,590 s,CN(C)C[C@@H]1CN(c2ncccn2)C[C@H]1NS(=O)(=O)Cc1ccc(F)cc1
7,1020 s,CC(C)Cn1c(=O)c(N2CCN(C(=O)C(C)C)CC2)nc2ccccc21
8,585 s,Cn1cnc2cc(-c3noc(CNC(=O)c4ccco4)n3)ccc21
9,766 s,O=C(NCc1csc(-c2ccccc2)n1)C1CCN(C(=O)Nc2ccccc2)CC1
10,824 s,O=C(CN1CCN(Cc2ccccc2)C1=O)N1CCN(c2ccccc2F)CC1
11,890 s,CCN1C(=O)C(C)(C(=O)NCc2ccccc2Cl)Oc2cccnc21 (stereo not drawn)
12,706 s,CN(Cc1nc2ccccc2n1CCc1ccccc1)C(=O)c1ccco1
13,668 s,O=C(NCc1c(-c2ccc(Cl)cc2)nc2n1CCS2)c1ccco1
14,935 s,O=C(NCc1ccco1)N1CCN(c2nc3cccnc3n(Cc3ccccc3)c2=O)CC1
15,959 s,COc1ccc(NC(=O)Cn2cc(-c3ccccc3C)c(N3CCOCC3)n2)c(OC)c1
16,1030 s,O=C(Cn1nc(N2CCSCC2)c2ccccc2c1=O)Nc1cccc(Br)c1
17,995 s,CC(C)Cn1c(=O)c2cc(C(=O)NCc3cccs3)nn2c2ccccc21
18,722 s,CCCn1c(CCNC(=O)c2ccc(Cl)cc2)nc2cccnc21
19,918 s,COc1ccc2cc(C(=O)N3CCCC(c4nnc(-c5ccccc5F)s4)C3)[nH]c2c1 (stereo not drawn)
20,1020 s,Cc1nn(C)c2nc(OC(C)C(=O)NCc3ccc(Cl)cc3)cc(C(F)(F)F)c12 (stereo not drawn)
21,800 s,CNC(=O)c1cc(-c2cccc(OC)c2)nc2ccccc12
22,910 s,CCn1cc(C2=CCN(C(=O)Nc3ccc(SC)cc3)CC2)c2cccnc21
23,981 s,COc1ccc(NC(=O)CSc2cc(N3CCN(c4ccccc4OC)CC3)ncn2)cc1Cl
24,676 s,CC(C)CN1C(=O)c2cccn2CC1C(=O)NCc1ccc2c(c1)OCO2 (stereo not drawn)
25,870 s,O=C(NCc1csc(-c2cccs2)n1)C1CCN(S(=O)(=O)c2ccccc2)CC1

row,RP-LC retention time,SMILES
1,1210 s,O=S(=O)(Nc1ccccc1)c1cccc(-c2nc(-c3ccccc3)no2)c1
2,853 s,O=C(Cn1cnc(-c2nc(-c3ccccc3)cs2)c1)N1CCN(c2ccccc2)CC1
3,1040 s,O=C(NCC1CCCCC1)C1CCCN(c2nccn3nc(-c4ccccc4Cl)cc23)C1 (stereo not drawn)
4,788 s,Cn1nc(C(=O)N2C[C@@H]3C[C@H](NC(=O)c4ccccc4)[C@H]2C3)c2ccccc21
5,622 s,CC(C)Cn1c(=O)c2sccc2n2c(CCC(=O)NCc3cc(F)ccc3F)nnc12
6,705 s,CCC(C(=O)N1CCN(c2ccccn2)CC1)n1nc(C)c2sc3ccccc3c2c1=O (stereo not drawn)
7,1400 s,Cc1cccc(-c2noc(-c3cccnc3N3CCN(c4ccccc4)CC3)n2)c1
8,1070 s,O=C(NCc1ccccc1)Nc1ccc(-c2nc(-c3ccccc3)co2)cc1
9,812 s,CN1C(=O)c2cccnc2Sc2cc(C(=O)NCc3ccc(Cl)cc3)ccc21
10,751 s,O=C(NCc1ccc(F)cc1)N1CCC(c2noc(C3CC3)n2)C1 (stereo not drawn)
11,593 s,O=C(c1ccoc1)N1CC(N(Cc2ccncc2)CC2CC2)C1
12,1070 s,Cc1oc2ccn(Cc3ccccc3F)c(=O)c2c1C(=O)NCc1ccccc1
13,898 s,COCCN1C(=O)Cc2ccccc2C1C(=O)NCc1ccc(Cl)cc1 (stereo not drawn)
14,570 s,CC(C)c1nnc(-c2ccc(=O)n(CC(=O)N3CCN(c4ccccn4)CC3)c2)o1
15,646 s,Cc1ccc2nc(C(=O)NCc3cccs3)cn2c1
16,665 s,COc1ccc(-c2cc3n(n2)CCCN(C(=O)c2cccnc2)C3)cc1
17,1060 s,CCOC(=O)c1ccccc1NC(=O)Cn1c(=O)n(-c2ccc(C)cc2)c(=O)c2c1cc(C)n2C
18,673 s,Cc1ccc2ncn3c(=O)n(CC(=O)Nc4ccc5c(c4)OCO5)nc3c2c1
19,1040 s,O=C(N1CCCC1c1noc(COCc2ccccc2)n1)C1(c2ccccc2)CC1 (stereo not drawn)
20,1020 s,Cc1ccccc1OCc1nc(-c2cccc(-c3ccn[nH]3)c2)no1
21,766 s,Cc1ccc2c(ccn2CCNC(=O)C2CC(=O)N(c3n[nH]c4ccccc34)C2)c1 (stereo not drawn)
22,697 s,Cc1nc(-c2ccncc2)cc2nn(CC(=O)NCc3ccccc3)c(=O)n12
23,1060 s,O=c1ccc(-c2ccccc2)nn1CCc1nc(-c2ccc(Br)cc2)no1
24,613 s,COc1ccccc1CNC(=O)CN1C(=O)CSc2cccn2-c2ccccc21
